# Data from US20250345340A1, “METHODS FOR THE PREVENTION AND TREATEMENT OF POST-OPERATIVE ABDOMINAL ADHESIONS” (UNIVERSITY OF ROCHESTER, priority 2024, published 2025).
# “Also recorded” adds a separate entry of the source.
# Key:
# [1] = test system: post-operative abdominal adhesions; assay: Murine abdominal adhesion surgery model (cecum and abdominal wall abrasion, silk sutures, starch); format: in vivo, C57Bl/6J mice
# From the text: Murine Abdominal Adhesion Surgery: Mature adult (16-20-week-old) C57Bl/6J male and female mice underwent abdominal surgery to induce adhesions consistent with those observed postoperatively in clinical settings. Briefly, following sedation, a vertical midline laparotomy incision, extending from the xyphoid process to just above the bladder (˜4 cm), is made through the abdominal skin and musculature. The cecum is identified and eviscerated, followed by gentle abrasion with sterile 100-grit sandpaper for 30-60 seconds. Hemostasis is ensured and the cecum is then returned to the abdominal cavity. The abdominal wall is then abraded with sterile 100-grit sandpaper, followed by placement of two-four 4-0 silk sutures, which are placed into the abdominal wall. The intestines are then irrigated with warmed sterile saline, and hemostasis is confirmed. A small pinch of sterile autoclaved rice starch is then sprinkled on the cecum and abdominal sidewall. The laparotomy is closed with absorbable, interrupted sutures used to reapproximate the fascia and followed by sutures to close the skin. The skin is closed with skin adhesive.
# Scoring of gross adhesion formation: At time of harvest, digital photographic images will be taken of the abdominal cavity of each mouse, with images standardized to a lateral reflection of abdominal wall prior to manipulation of intra-abdominal contents. These images are then curated in a Research Electronic Data Capture (RedCap)-based survey for blinded scoring. Adhesions are scored from 0-5: with ‘0’ indicating no adhesions; 1: a single thin, filmy adhesion; 2: more than one filmy adhesion; 3: one thick adhesion with focal attachment (+thin filmy adhesions); 4: one thick adhesion with broad planar attachment (+thin filmy adhesions); and 5: >1 thick adhesion with broad planar attachment, or >1 thick vascular adhesion with planar attachment (+thin filmy adhesions). Images are scored by at least 5 surgeons trained on the scoring process, with the mean of these scores reported for each mouse.
# Histological assessment of adhesions and ileal smooth muscle hypertrophy: Following digital image capture, the area of adhesion between the abdominal wall and bowel (or other organs), including any bowel: bowel adhesions is isolated, fixed in 10% neutral buffered formalin, and processed for paraffin histology. In cases of adhesion absence, the abdominal wall and cecum are harvested and sectioned separately. Five-micron transverse sections are cut through the tissue. To ensure accurate quantification of adhesions, tissue sections are collected through multiple depths through the tissue. […] Adhesion extent (length and cross-sectional area) along both the abdominal wall/cecal surface and between organs are quantified from H&E images by ≥2 blinded observers. […]
# At harvest, the study took pictures of the peritoneal cavity, which were scored by 4 blinded, board certified surgeons adhesion scores ranged from 0 (none) to 5 (dense, vascular, adhesions).
# The study chose the area of highest visible fibrosis and adhesion density. […] Adhesions were then measured in micrometers. Length of adhesions between the bowel to abdominal wall and bowel to bowel were measured. The total adhesion density (excluding abdominal wall fibrosis) was then measured by cross section. […]
# lung fibroblasts = conditions: cited from earlier work
structure (smiles),measurement,setting,value
Nc1nc(NCc2ccccc2)nc(-c2ccccc2CO)n1 [ogerin],length of adhesions between the bowel and abdominal wall and bowel to bowel,"[1]; histology, POD10, vs control",reduction in length of adhesions
same,overall adhesion cross section (total adhesion burden by area),"[1]; histology, POD10, vs control",significantly lower; also recorded: reduces total adhesion burden
same,"clinical adhesion score (0-5, blinded surgeons)","[1]; ogerin injected POD 0-5, harvest POD10, vs vehicle",reduces clinical adhesion score; also recorded: significantly lower
same,adhesion formation (gross),"[1]; ogerin injected POD 0-5, harvest POD10, vs vehicle DMSO:Saline 60:40",blunts adhesion formation; also recorded: substantial decrease in adhesion formation
same,mice demonstrating a complete lack of adhesion formation,"[1]; ogerin injected POD 0-5, harvest POD10, all vehicle mice formed robust adhesions",3 out of 4
same,TGF-b-induced myofibroblast differentiation,lung fibroblasts,blunts
same,reversion to a basal fibroblast phenotype following TGF-β-induced myofibroblast differentiation,lung fibroblasts,can promote reversion
